Results on eight compounds are retold here after patent publication US5194445A, “Ascorbic acid derivative” (Nippon Hypox Laboratories Incorporated, priority 1989, dated 1993).

One series has as its system Rat Liver Microsome. The series is described as follows: Activity to Inhibit Hyperoxidation of Lipid of Rat Liver Microsome (thiobarbituric acid method). The series is classed as biochemical. The method, then: Activity to Inhibit Hyperoxidation of Lipid of Rat Liver Microsome
A rat liver microsome was prepared according to a conventional method, and suspended in 1.15% KCl to obtain a microsome suspension.
The above microsome suspension in an amount equivalent to 2 mg of a protein was added to a tris-HCl buffer (pH 7.4) to which NADPH, ADP and FeCl3 had been added such that the final concentrations were 0.2 mM of NADPH, 1 mM of ADP and 10 μM of FeCl3.
A dimethylformamide (DMF) solution of each of test compounds in an amount of 10 μl or DMF in an amount of 10 μl was added such that the total amount of each of the mixtures was 1 ml, and then, the mixtures were kept at 37° C. for 20 minutes. In addition, the test compounds were added in such amounts that their final concentrations became 10^-5 M.
Thereafter, according to a thiobarbituric acid method, the above mixtures were measured for an amount of peroxide lipid formed. The inhibiting activities of the test compounds were compared with that of the group containing the solvent (DMF) alone, and the results were expressed as an inhibition ratio (%).
Background: Microsomes from liver hold many membrane-bound enzymes, among them those of drug oxidation.

Series [1] has as its system Ventricular Arrhythmia During Coronary Occlusion-Reperfusion in Rat Heart. The series is described as follows: Activity to Inhibit Ventricular Arrhythmia During Coronary Occlusion-Reperfusion in Rat Heart. The class given is in vivo, male Wistar rats. To be noted: for Total time of arrhythmia occurrence (second) (mean + S.E.): 10 minutes (600 seconds) observation. On the procedure: Activity to Inhibit Ventricular Arrhythmia During Coronary Occlusion-Reperfusion in Rat Heart
Five to ten male Wistar rats (weight 230 to 460 g per rat) were used as one group for each of test compounds. Each of the rats was anesthetized with sodium pentobarbital, and electrocardiograms thereof were recorded with standard lead II.
The rats were subjected to thoracotomy under artificial respiration, and left coronary artery ramus anterior descendenses were ligated for 5 minutes and then perfused.
In addition, each of test compounds was suspended in a physiological saline containing 1% olive oil and 1% Tween 80, and the resultant suspensions were administered into femoral veins 2 minutes before the coronary occlusion, or orally administered 1 hour before the coronary occlusion, such that the amounts of said compounds were as predetermined.
When a left coronary artery ramus anterior descendence is occluded for 5 minutes and then reperfused, ventricular arrhythmia typified by ventricular tachycardia (VT) and ventricular fibrillation (VF) occurs.

Series [2] concerns Ischemic Brain Model Mouse. Put plainly: Action on Survival Rate of Ischemic Brain Model Mouse. The class given is in vivo, ICR male mice. The following applies: oral, 100 mg/kg. On the procedure: Action on Survival Rate of Ischemic Brain Model Mouse
Thirteen to fifty-six ICR male mice were used as one group for each of test compounds. Each of the mice was anesthetized by intraperitoneal administration of sodium pentobarbital, the bilateral carotid arteries were exposed, a thread was put around the arteries, and the skin was sutured with one end of the thread outside the body.
Three days after the suture of the skin, the bilateral carotid arteries were ligated for 3 minutes, and then reperfused to obtain ischemic brain model mice. And, a survival rate in each group 24 hours after the ligation-reperfusion of bilateral carotid arteries was determined.
In addition, each of the test compounds was suspended in a physiological saline containing 1% olive oil and 1% Tween 80, and the suspension was orally administered one hour before the ligation of the bilateral carotid arteries such that the amount of each test compound was 100 mg/kg.

A further series concerns CCl4 Liver Dysfunction. Put plainly: Action on CCl4 Liver Dysfunction. To be noted: oral. The series is classed as in vivo, ICR male mice. The method, then: Action on CCl4 Liver Dysfunction
Fourteen and seventeen ICR male mice were used as one group for each test. Each of the mice was hypodermically administered in its dorsal portion with 10 ml/kg of a solution of 10% CCl4 in olive oil to develop acute hepatitis, and the serum obtained by centrifugation of a blood sample taken from each mouse 48 hours after the administration was measured on GOT (glutamic-oxaloacetic transaminase) activity and GPT (glutamic-pyruvictransaminase) activity with an autoanalyzer (AU550, supplied by Olympus K.K.).
In addition, the test compound was suspended in physiological saline containing 1% olive oil and 1% Tween 80, and the resultant suspension was orally administered three times in total, immediately after the CCl4 administration and in the morning and evening on the day thereafter, such that the dose of each test compound was 100 mg/kg/one time administration.

In series [3] the test system is Ischemic Acute Renal Insufficiency. The series is described as follows: Action on Ischemic Acute Renal Insufficiency. The class given is in vivo, male Wistar rats. The following applies: intravenous, 72 hours after reperfusion. The method, then: Action on Ischemic Acute Renal Insufficiency
Four male Wistar rats (weight: about 200 g per rat) were used as one group for each test. Each of the rats was anesthetized with sodium pentobarbital, the right kidney was extirpated, and immediately thereafter, 100 IU/kg of heparin was intravenously administered to its tail. Eight minutes after the administration, the left renal artery was ligated with a suture, and 60 minutes after the ligation, and the renal artery was reperfused by unligating the suture to develop ischemic acute renal insufficiency in each of the rats.
Immediately before the administration of sodium pentobarbital and 72 hours after the reperfusion, blood samples were taken from the tail artery of each rat, and the serums obtained by centrifugation of the sample bloods were respectively measured for a blood urea nitrogen (BUN) amount and a creatinine amount, indices for renal insufficiency, with an autoanalyzer (AU550, supplied by Olympus K.K.).
In addition, the test compound was suspended in a physiological saline containing 1% olive oil and 1% Tween 80, and the resultant suspension was intravenously administered to the tail of each rat 10 minutes before the administration of sodium pentobarbital or 10 minutes before the reperfusion such that the dose of the test compound was 10 mg/kg or 30 mg/kg.

The next series in a line: Stability Test. The series is classed as physicochemical. To be noted: room temperature, after 24 hours, tris-HCl buffer pH 9.0; read-out: residual content. The method, then: A tris-HCI buffer having pH of 9.0 was added to each of alcohol solutions of the compounds (Ia2), (Ia3), (IA2) and 2-O-dodecyl ascorbic acid, which was a position isomer of the compound (IA2), in such a manner that the amount of the buffer was 100 times as large as that of each alcohol solution.
The test compounds in the solutions which were allowed to stand at room temperature were quantitatively determined with time to measure their stability.

In a further series the test system is Mouse. Put plainly: Acute Toxicity Test on Mouse. The series is classed as in vivo, Male 3-ICR mice. The following applies: intravenous. On the procedure: Acute Toxicity Test on Mouse
Male 3-ICR mice (10 weeks of age) were used. The compounds (Ia2), (Ia3) and (IA2) were intravenously administered to the mice in such a manner that the doses of each of the compounds were 30 mg/kg and 100 mg/kg. For one week after the administration, symptoms were observed.

Setting [4] is: 10^-5 M, pH 7.4, 37° C., 20 minutes, versus solvent (DMF) alone; 10 µM.
Setting [5] is: 10^-5 M, pH 7.4, 37° C., 20 minutes, versus solvent (DMF) alone, 10 µM.
[6] abbreviates: 100 mg/kg/one time, three times, serum 48 hours after CCl4.

With `CCCCCCC(=O)COC1=C(O)C(=O)O[C@@H]1[C@@H](O)CO` [(a), reference compound], in the series on Rat Liver Microsome (setting [4]), the “Lipid hyperoxidation inhibition ratio (%)” value was 27%.
The same measure, in the same setting: the figure for `CCCCCCCCCCCCCCCCC(=O)COC1=C(O)C(=O)O[C@@H]1[C@@H](O)CO` [(b), reference compound] is 43%; for `CCCCCCCCOC1=C(O)C(=O)O[C@@H]1[C@@H](O)CO` [(c), reference compound] it is 40%; for `CCCCCCCCCCCCCCCCCCOC1=C(O)C(=O)O[C@@H]1[C@@H](O)CO` [(d), reference compound] it is 45%.
For `CCCCCCCCCCOC(=O)COC1=C(O)C(=O)O[C@@H]1[C@@H](O)CO` [Compound (IA5)], the “Lipid hyperoxidation inhibition ratio (%)” value with Rat Liver Microsome (setting [5]) came out at 72%.
Still for that read-out and setting: the figure for `CCCCCCCCCCCCCCCCCCOC(=O)COC1=C(O)C(=O)O[C@@H]1[C@@H](O)CO` [Compound (IA6)] is 73%.
As for `CCCCCCCCCCCCC(=O)COC1=C(O)C(=O)O[C@@H]1[C@@H](O)CO` [Compound (Ia3), 3-O-dodecylcarbonylmethyl ascorbic acid], the “Lipid hyperoxidation inhibition ratio (%)” value worked out at 85% in the series on Rat Liver Microsome (setting [5]) and 81% in the series on Rat Liver Microsome (10^-5 M, pH 7.4, 37° C., 20 minutes, versus solvent (DMF) alone, 10 µM, listed as Compound (IA3)). In addition, the “Total time of arrhythmia occurrence (second) (mean + S.E.)” value in series [1] (i.v., 0.3 mg/kg, 2 minutes before coronary occlusion) was 471.0 ± 73.6 s; in series [1] (i.v., 1 mg/kg, 2 minutes before coronary occlusion) it was 216.1 ± 59.6 s; in series [1] (i.v., 3 mg/kg, 2 minutes before coronary occlusion) it was 273.5 ± 93.8 s; in series [1] (i.v., 10 mg/kg, 2 minutes before coronary occlusion) it was 203.8 ± 91.0 s; in series [1] (i.v., 30 mg/kg, 2 minutes before coronary occlusion), 150.5 ± 79.8 s; in series [1] (p.o., 10 mg/kg, 1 hour before coronary occlusion), 378.2 ± 61.4 s. The “Total time of arrhythmia occurrence (second) (mean + S.E.)” value amounted to 313.3 ± 81.7 s in series [1] (p.o., 30 mg/kg, 1 hour before coronary occlusion); 85.4 ± 28.9 s in series [1] (p.o., 100 mg/kg, 1 hour before coronary occlusion); 123.6 ± 43.7 s in series [1] (p.o., 300 mg/kg, 1 hour before coronary occlusion). Besides, the “inhibition of occurrence of arrhythmia” value in series [1] (intravenously, not less than 1 mg/kg) is given as “same significant inhibition”; in series [1] (orally, not less than 10 mg/kg), “same significant inhibition”. For the same compound, the “Survival rate (%)” value in series [2] (one hour before ligation, 24 hours after ligation-reperfusion of bilateral carotid arteries) is recorded as 80.0%. The “survival rate versus vehicle group” value in series [2] (24 hours after ligation-reperfusion) was “significantly higher”. Also, the “GOT activity value” in the series with CCl4 Liver Dysfunction (100 mg/kg) is recorded as “significantly reduced”. The “GPT activity value” with CCl4 Liver Dysfunction (100 mg/kg) is “significantly reduced”. In the series with CCl4 Liver Dysfunction (setting [6]), the “GOT activity (mean ± S.E)” value came out at 445.0 ± 69.0 Unit/1. Besides, the “GPT activity (mean ± S.E)” value in the series on CCl4 Liver Dysfunction (setting [6]) is on record as 1,406.4 ± 185.2 Unit/1. In addition, the entries for the “BUN amount (mean ± S.E.)” value in series [3] (10 mg/kg) and in series [3] (30 mg/kg) were 33.8 ± 6.1 mg/dL and 34.1 ± 8.9 mg/dL, respectively. For the same compound, the “Creatinine amount (mean ± S.E.)” value was determined as 0.93 ± 0.05 mg/dL in series [3] (10 mg/kg) and 1.04 ± 0.12 mg/dL in series [3] (30 mg/kg). Besides, the “BUN amount versus vehicle group” value in series [3] (10 or 30 mg/kg) is on record as “significantly smaller”. The “creatinine amount versus vehicle group” value in series [3] (10 or 30 mg/kg) is listed as “significantly smaller”. Further, the remaining at 24 h in the series “Stability Test” was ≥ 80%. Also, the “death during observation for one week” value in the series on Mouse (30 mg/kg) and with Mouse (100 mg/kg) was “no death was found” in each case.
On to `CCCCCCCCCCCCCCC(=O)COC1=C(O)C(=O)OC1C(O)CO` (centres unmarked) [Compound (Ia4)], for which, in the series on Rat Liver Microsome (setting [5]), the “Lipid hyperoxidation inhibition ratio (%)” value is 65%.
